# Results reported in ChEMBL document CHEMBL3734667 (Bioorg Med Chem, 2015).
# Calls of active or inactive are those of the source. The rule behind the calls is not given here.
# Legend:
# [1] = test system: Bovine viral diarrhea virus 1; assay: Antiviral activity against BVDV infected in MDBK cells assessed as inhibition of virus-induced cytopathogenicity after 3 to 4 days by MTT assay; assay type: functional, organism-based; settings: Bovine viral diarrhea virus isolates and strains
# [2] = Selectivity index, ratio of CC50 for human MT4 cells to EC50 for HIV-1; assay type: toxicity, cell-based; settings: human immunodeficiency virus 1, MT4 cells; read-out: Ratio CC50/EC50
# Coxsackievirus B5 = assay: Antiviral activity against human CVB5 infected in african green monkey Vero76 cells assessed as inhibition of virus-induced cytopathogenicity after 3 days by plaque reduction assay; assay type: functional, organism-based; settings: Enterovirus B, Vero 76, 72 h
# [3] = Cytotoxicity against african green monkey Vero 76 cells assessed as cell viability after 48 to 96 hrs by crystal violet staining method; assay type: cell-based; settings: chlorocebus sabaeus
# [4] = Cytotoxicity against human MT4 cells assessed as cell viability after 96 hrs by MTT assay; assay type: cell-based
# Yellow fever virus = assay: Antiviral activity against YFV infected in BHK-21 cells assessed as inhibition of virus-induced cytopathogenicity after 3 to 4 days by MTT assay; assay type: functional, organism-based
# Human orthopneumovirus = assay: Antiviral activity against human RSV infected in african green monkey Vero76 cells assessed as inhibition of virus-induced cytopathogenicity after 5 days by plaque reduction assay; assay type: functional, organism-based; settings: human respiratory syncytial virus, Vero 76, 120 h
# [5] = Cytotoxicity against MDBK cells assessed as cell viability after 48 to 96 hrs by MTT assay; assay type: cell-based, Bos taurus; settings: cattle
# Vaccinia virus = assay: Antiviral activity against Vaccinia virus; assay type: functional, organism-based; settings: Orthopoxvirus vaccinia
# [6] = Cytotoxicity against BHK cells assessed as cell viability after 48 to 96 hrs by MTT assay; assay type: cell-based, Mesocricetus auratus; settings: hamster
# [7] = test system: Vesicular stomatitis virus; assay: Antiviral activity against VSV; assay type: functional, organism-based
# [8] = test system: Human immunodeficiency virus 1; assay: Antiviral activity against HIV-1 infected in MT4 cells assessed as inhibition of virus-induced cytopathogenicity after 4 days by MTT assay; assay type: functional, organism-based; settings: Human immunodeficiency virus 1, MT4, 96 h
# [9] = Selectivity index, ratio of CC50 for african green monkey Vero76 cells to EC50 for human Sb-1; set-up: species or system Human poliovirus 1 strain Sabin, Vero 76
# [10] = Selectivity index, ratio of CC50 for MDBK cells to EC50 for BVDV; set-up: species or system Bovine viral diarrhea virus 1
# Poliovirus 1 = assay: Antiviral activity against Human poliovirus 1 Sabin infected in african green monkey Vero76 cells assessed as inhibition of virus-induced cytopathogenicity by plaque reduction assay; assay type: functional, organism-based; settings: Enterovirus C, Vero 76
# Influenza B virus = assay: Antiviral activity against Influenza B virus; assay type: functional
# [11] = test system: Respiratory syncytial virus; assay: Antiviral activity against RSV; assay type: functional, organism-based; settings: human respiratory syncytial virus
# [12] = Inhibition of HCV helicase; set-up: species or system Hepacivirus hominis
# [13] = molecular target: T1, Peroxisome proliferator-activated receptor gamma (Homo sapiens) (UniProt P37231); assay: Agonist activity at human PPAR gamma in human HepG2 cells after 20 hrs by luciferase reporter assay; assay type: cell-based
# T1 sequence (whole entry): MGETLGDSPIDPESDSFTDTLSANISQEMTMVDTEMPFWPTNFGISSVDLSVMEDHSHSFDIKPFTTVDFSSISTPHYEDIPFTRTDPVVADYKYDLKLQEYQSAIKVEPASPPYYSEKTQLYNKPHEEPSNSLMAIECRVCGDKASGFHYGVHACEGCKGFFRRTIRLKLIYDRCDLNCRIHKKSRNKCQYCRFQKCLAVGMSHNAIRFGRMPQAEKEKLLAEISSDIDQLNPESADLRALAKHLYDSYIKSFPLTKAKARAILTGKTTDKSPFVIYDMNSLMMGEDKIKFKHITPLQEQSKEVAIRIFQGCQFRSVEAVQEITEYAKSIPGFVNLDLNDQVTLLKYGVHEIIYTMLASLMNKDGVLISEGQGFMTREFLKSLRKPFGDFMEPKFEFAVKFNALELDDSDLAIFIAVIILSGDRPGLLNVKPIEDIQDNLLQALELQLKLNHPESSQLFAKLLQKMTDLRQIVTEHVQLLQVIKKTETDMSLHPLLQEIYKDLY
# [14] = molecular target: T2, Peroxisome proliferator-activated receptor alpha (Homo sapiens) (UniProt Q07869); assay: Agonist activity at human PPAR alpha in human HepG2 cells after 20 hrs by luciferase reporter assay; assay type: cell-based
# T2 sequence (whole entry): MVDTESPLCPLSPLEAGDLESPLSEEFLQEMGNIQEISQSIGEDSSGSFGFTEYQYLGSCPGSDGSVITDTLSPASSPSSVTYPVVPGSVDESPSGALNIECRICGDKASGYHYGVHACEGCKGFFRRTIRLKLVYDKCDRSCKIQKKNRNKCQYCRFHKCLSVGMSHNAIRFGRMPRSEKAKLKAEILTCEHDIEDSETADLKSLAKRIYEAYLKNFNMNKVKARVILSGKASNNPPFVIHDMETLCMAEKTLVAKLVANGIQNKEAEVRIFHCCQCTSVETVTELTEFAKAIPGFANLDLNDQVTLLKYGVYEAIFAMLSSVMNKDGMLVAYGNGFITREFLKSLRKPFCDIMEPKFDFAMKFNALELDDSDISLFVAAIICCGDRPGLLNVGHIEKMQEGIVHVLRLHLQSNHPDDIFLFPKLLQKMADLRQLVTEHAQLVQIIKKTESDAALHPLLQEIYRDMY
# [15] = Selectivity index, ratio of CC50 for african green monkey Vero76 cells to EC50 for human RSV; set-up: species or system human respiratory syncytial virus, Vero 76
# [16] = Selectivity index, ratio of CC50 for african green monkey Vero76 cells to EC50 for human CVB5; set-up: species or system Coxsackievirus B5, Vero 76
# [17] = test system: Mammalian orthoreovirus 1; assay: Antiviral activity against Reo-1 virus infected in BHK-21 cells assessed as inhibition of virus-induced cytopathogenicity after 3 to 4 days by MTT assay; assay type: functional, cell-based; settings: Mammalian orthoreovirus 1, BHK-21
# Human alphaherpesvirus 1 = assay: Antiviral activity against HSV1; assay type: functional, organism-based
# [18] = Selectivity index, ratio of CC50 for BHK-21 cells to EC50 for YFV; set-up: species or system Yellow fever virus
# dengue virus type 2 = assay: Antiviral activity against DENV-2 infected in BHK-21 cells assessed as inhibition of virus-induced cytopathogenicity after 3 to 4 days by MTT assay; assay type: functional, organism-based
# West Nile virus = assay: Antiviral activity against WNV infected in BHK-21 cells assessed as inhibition of virus-induced cytopathogenicity after 3 to 4 days by MTT assay; assay type: functional, organism-based
# [19] = Selectivity index, ratio of CC50 for BHK-21 cells to EC50 for DENV-2
# [20] = Selectivity index, ratio of CC50 for BHK-21 cells to EC50 for WNV; set-up: species or system West Nile virus
Structure (SMILES),EC50 [1],EC50 (Coxsackievirus B5),CC50 [3],CC50 at 96 h [4],EC50 (Yellow fever virus),EC50 (Human orthopneumovirus),CC50 [5],EC50 (Vaccinia virus),CC50 [6],EC50 [7],EC50 [8],Ratio CC50/EC50 [9],Ratio CC50/EC50 [10],EC50 (Poliovirus 1),Ratio CC50/EC50 [15],Ratio CC50/EC50 [16],EC50 [17],EC50 (Human alphaherpesvirus 1),other results
CN(C)c1cccc(C(=O)OCCn2nc3ccccc3n2)c1,> 100 µM,> 100 µM,> 100 µM,> 100 µM,> 100 µM,> 100 µM,> 100 µM,> 100 µM,> 100 µM,> 100 µM,56 µM,–,–,–,–,–,–,–,selectivity ratio [2]: 1.78
Oc1ccc(-n2nc3ccccc3n2)cc1,17 µM,> 100 µM,90 µM,> 100 µM,≥ 83 µM,–,≥ 100 µM,> 100 µM,83 µM,> 100 µM,> 100 µM,12.86,>5.88,7 µM,–,–,–,–,–
Oc1ccc2nn[nH]c2c1/N=N/c1ccc(Cl)cc1,–,–,–,–,–,–,–,–,–,–,–,–,–,–,–,–,–,–,EC75 (Influenza B virus): 4.3 µM
Clc1ccc2c(c1)nc(Cn1nnc3ccccc31)n2CC[C@@H]1CCCN2CCCC[C@H]12,–,–,–,–,–,–,–,–,–,–,–,–,–,–,–,–,–,–,EC50 [11]: 0.02 µM
CCCn1nc2c(Br)c(Br)c(Br)c(Br)c2n1,–,–,–,–,–,–,–,–,–,–,–,–,–,–,–,–,–,–,IC50 [12]: 5.8 µM
COc1ccc2nn(-c3ccc(OCC(C)(C)C(=O)O)cc3)nc2c1,66 µM,24 µM,65 µM,≥ 100 µM,> 100 µM,11 µM,> 100 µM,> 100 µM,100 µM,> 100 µM,> 100 µM,–,>1.51,> 100 µM,5.91,2.71,–,–,Activity [13]: inactive; Activity [14]: inactive
CC(C)(CCCOc1ccc(-n2nc3ccccc3n2)cc1)C(=O)O,27 µM,4 µM,25 µM,47 µM,> 100 µM,5 µM,61 µM,> 100 µM,31 µM,> 100 µM,> 100 µM,–,2.26,> 100 µM,5,6.25,–,–,Activity [13]: inactive; Activity [14]: inactive
COc1ccc(-n2nc3ccc(C(F)(F)F)cc3n2)cc1,> 100 µM,80 µM,> 100 µM,> 100 µM,> 100 µM,> 100 µM,> 100 µM,> 100 µM,> 100 µM,> 100 µM,> 100 µM,>2.5,–,40 µM,–,>1.25,> 100 µM,> 100 µM,–
C[C@@]1(O)[C@H](O)[C@@H](CO)O[C@H]1n1cnc2c(=O)[nH]c(N)nc21 [2'-B-METHYL-GUANOSINE],–,20 µM,> 100 µM,> 100 µM,1.5 µM,> 100 µM,> 100 µM,> 100 µM,> 60 µM,> 100 µM,–,–,>58.8,> 100 µM,–,>5,–,> 100 µM,Ratio CC50/EC50 [18]: >66.7; EC50 (dengue virus type 2): 1.2 µM; EC50 (West Nile virus): 0.7 µM
FC(F)(F)c1ccc2c(c1)nnn2C[C@@H]1CCCN2CCCC[C@H]12,> 100 µM,38 µM,> 100 µM,> 100 µM,27 µM,90 µM,> 100 µM,> 100 µM,> 100 µM,> 100 µM,> 100 µM,–,–,> 100 µM,>1.11,>2.63,> 100 µM,> 100 µM,Ratio CC50/EC50 [18]: >3.7
Oc1ccc(-n2nc3ccc(C(F)(F)F)cc3n2)cc1,30 µM,> 100 µM,> 100 µM,≥ 100 µM,17 µM,10 µM,47 µM,> 100 µM,65 µM,> 100 µM,> 100 µM,>1.25,1.57,80 µM,>10,–,> 100 µM,> 100 µM,Ratio CC50/EC50 [18]: 3.82; EC50 (dengue virus type 2): 17 µM; Ratio CC50/EC50 [19]: 3.82; EC50 (West Nile virus): > 100 µM
Oc1ccc(-n2nc3cc(Cl)c(Cl)cc3n2)cc1,14 µM,25 µM,50 µM,47 µM,6 µM,8 µM,37 µM,> 100 µM,28 µM,> 100 µM,> 100 µM,–,2.64,> 100 µM,6.25,2,> 100 µM,> 100 µM,Ratio CC50/EC50 [20]: 2.15; Ratio CC50/EC50 [18]: 4.67; EC50 (dengue virus type 2): 8 µM; Ratio CC50/EC50 [19]: 3.5; EC50 (West Nile virus): 13 µM
C#C[C@@]1(O)[C@H](O)[C@@H](CO)O[C@H]1n1ccc(N)nc1=O [2'-ETHYNYL-D-CYTIDINE],–,30 µM,> 100 µM,> 100 µM,> 100 µM,> 100 µM,> 100 µM,> 100 µM,> 100 µM,> 100 µM,–,>4,>2.6,25 µM,–,>3.3,> 100 µM,> 100 µM,–
Cc1cc(CCCOc2c(C)cc(-c3noc(C(F)(F)F)n3)cc2C)on1 [PLECONARIL],–,0.008 µM,70 µM,–,–,–,–,–,–,–,–,35,–,2 µM,–,–,–,–,Ratio CC50/EC50 [18]: 8750
Clc1cc2nnn(C3CCCCO3)c2cc1Cl (stereo not given),> 100 µM,–,≥ 100 µM,> 100 µM,> 100 µM,–,> 100 µM,–,> 100 µM,> 100 µM,> 100 µM,1.67,–,60 µM,–,–,> 100 µM,> 100 µM,–
O=c1n(Cc2nc3ccccc3n2CCCCO)c2cnccc2n1C1CC1,–,–,–,–,–,–,–,–,–,–,–,–,–,–,–,–,–,–,EC50 [11]: 0.01 µM
CC(C)(COc1ccc(-n2nc3ccccc3n2)cc1)C(=O)O,44 µM,> 100 µM,70 µM,> 100 µM,> 100 µM,25 µM,> 100 µM,> 100 µM,> 100 µM,> 100 µM,> 100 µM,–,>2.27,> 100 µM,2.8,–,–,–,Activity [13]: inactive; Activity [14]: inactive
OCC1OC(n2nnc3cc(Cl)c(Cl)cc32)C(O)C1O (stereo not given),–,–,–,–,–,–,–,–,–,–,–,–,–,–,–,–,–,–,IC50 [12]: 1.5 µM; EC75 (Influenza B virus): 750 µM
